Measured values published in US7354754B2, “Microorganism sensitive to lysozyme” (National Institute of Advanced Industrial Science and …, priority 2002, dated 2008).

Key:
Type in all cases: cell-based
[1] = system: Rhodococcus erythropolis wild type and mutant strain; assay: Comparison of wild type and mutant strain for sensitivity to antibiotics; details: determined similarly to the ampicillin test
Method: The sensitivity of Rhodococcus erythropolis strain L-65 and L-88 to ampicillin was determined in the same manner as in Example 1. To explain more specifically, the bacterial cells of each strain were inoculated in LB medium and cultured with shaking at 30° C. A part of the culture solution was taken in the middle of logarithmic growth period and diluted with fresh LB medium so as to contain 1×10^5, 1×10^4, 1×10^3, 1×10^2, and […] cells in 10 μl of the LB medium. The diluted culture solutions thus prepared were dropped onto each of LB agar mediums containing lysozyme in concentrations of 15, 10, 1, and 0.1 μg/ml. After the mediums were cultured at 30° C. for 2 days and the presence or absence of bacterial cells grown on the mediums was checked. In this manner, the minimum growth inhibition concentration was determined (Table 2).

[2] = system: Rhodococcus erythropolis strain L-88; assay: Minimum growth inhibition concentration on LB agar medium, strain L-88; details: 30° C., 2 days
Text: (§1) A microorganism of the genus Rhodococcus according to the present invention is a mutant microorganism of the genus Rhodococcus, which has a higher sensitivity to lysozyme than a wild-type microorganism of the genus Rhodococcus. The microorganism of the genus Rhodococcus is not limited to a specific species and includes Rhodococcus erythropolis, Rhodococcus fascians, and Rhodococcus opacus. The wild-type microorganism of the genus Rhodococcus refers to a microorganism belonging to the genus Rhodococcus and having no genetic mutation, for example, Rhodococcus erythropolis strain JCM 3201. More specifically, the microorganism of the genus Rhodococcus according to the present invention having a higher sensitivity to lysozyme is a mutant derived from a wild-type microorganism of the genus Rhodococcus as a parent strain, and having an increased sensitivity to lysozyme compared to the parent strain. The phrase “having an increased sensitivity to lysozyme” means that cell lysis may occur at a low lysozyme concentration. […] Alternatively, the degree of sensitivity to lysozyme can be determined by adding lysozyme to a predetermined concentration of a microorganism of the genus Rhodococcus, and monitoring a change in absorbence while culturing. […]

[3] = system: Rhodococcus erythropolis strain L-65; assay: Cell lysis with lysozyme for extraction of recombinant PIP protein, strain L-65; details: lysozyme 1 mg/ml, 37° C., one hour, nondenaturation buffer
Text: A plasmid (pHN170, Nakashima and Tamura: the full length sequence is represented by SEQ ID No: 2) was constructed such that it could self-replicate in a bacterial cell of Rhodococcus erythropolis and could be induced by thiostreptone to express a proline iminopeptidase (hereinafter referred to as “PIP”) protein (T. Tamura et al., FEBS Lett. 398, 101-105 (1996)) having a 6× histidine tag at the C terminal. This plasmid was introduced into Rhodococcus erythropolis strain L-65 by an electroporation method. Transformants were screened on LB agar medium containing tetracycline (20 μg/ml). The transformants were inoculated on 4 ml of LB medium containing tetracycline (8 μg/ml) and cultured with shaking at 30° C. until the absorbence at an absorption wavelength of 600 nm reached 0.8. The entire culture solution was added to 40 ml of LB medium containing thiostreptone (1 μg/ml) and cultured with rotation in a vaned flask for 16 hours. After PIP protein was induced to express, bacterial cells were centrifugally collected at 1,500×g for 15 minutes. […] As a result, a clear band was detected near the molecular weight (34.3 KDa), which was predicted from the amino acid sequence of the 6× histidine-fused PIP protein (FIG. 5). […]

[4] = system: Rhodococcus erythropolis strain L-65; assay: Turbidity change of culture solution by addition of lysozyme, strain L-65; details: lysozyme 12.5 μg/ml added at OD600 about 0.2, LB medium, 30° C.
Method: (§2) To 100 ml of LB medium, Rhodococcus erythropolis strain L-65 was inoculated and cultured with shaking at 30° C. The absorbence (OD600) of the culture solution was measured at an absorption wavelength of 600 nm every hour from the beginning of the logarithmic growth period. When OD600 reached about 0.2, the volume of the culture solution was divided into halves. To one of them, lysozyme was added to a final concentration of 12.5 μg/ml. No lysozyme was added to the other. While both solutions were further cultured continuously, the absorbence was measured. The growth profiles of Rhodococcus erythropolis strain L-65 culture solutions with Lysozyme (12.5 μg/ml) and without lysozyme were shown by absorbence at 600 nm. When OD600 reached about 0.2, lysozyme was added (Indicated by the arrow in the figure). […] This is considered because bacterial cell lysis was caused by lysozyme.

[5] = system: Rhodococcus erythropolis strain L-88; assay: Cell lysis with lysozyme for extraction of recombinant PIP protein, strain L-88; details: lysozyme 1 mg/ml, 37° C., one hour, nondenaturation buffer
[6] = system: Rhodococcus erythropolis strain JCM 3201; assay: Minimum growth inhibition concentration on LB agar medium, strain JCM 3201; details: strain JCM 3201 (wild type), 30° C., 2 days
Text: as §1

[7] = system: Rhodococcus erythropolis strain L-88; assay: Turbidity change of culture solution by addition of lysozyme, strain L-88; details: lysozyme 12.5 μg/ml added at OD600 about 0.2, LB medium, 30° C.
Method: as §2
The same operation as in Example 2 was performed by use of Rhodococcus erythropolis strain L-88. The growth profiles of culture solutions of Rhodococcus erythropolis strain L-88 with lysozyme (12.5 μg/ml) and without lysozyme were shown by absorbence at 600 nm. When OD600 reached about 0.2, lysozyme was added (Indicated by the arrow in the figure). […] This is considered because bacterial cell lysis was caused by lysozyme.

[8] = system: Rhodococcus erythropolis strain JCM 3201; assay: Turbidity change of culture solution by addition of lysozyme, strain JCM 3201; details: lysozyme 12.5 μg/ml added at OD600 about 0.2, LB medium, 30° C.
Method: as §2
The same operation as in Example 2 was performed by use of Rhodococcus erythropolis strain JCM 3201. The growth profiles of culture solutions of Rhodococcus erythropolis strain JCM 3201 with lysozyme (12.5 μg/ml) and without lysozyme were shown by absorbence at 600 nm. When OD600 reached about 0.2, lysozyme was added (Indicated by the arrow in the figure).

[9] = system: Rhodococcus erythropolis strain JCM 3201; assay: Cell lysis with lysozyme for extraction of recombinant PIP protein, strain JCM 3201; details: lysozyme 1 mg/ml, 37° C., one hour
[10] = system: Rhodococcus erythropolis strain L-65; assay: Minimum growth inhibition concentration on LB agar medium, strain L-65; details: 30° C., 2 days
Text: as §1

Compound: O=C(N[C@H](CO)[C@H](O)c1ccc([N+](=O)[O-])cc1)C(Cl)Cl [chloramphenicol]
- Difference in sensitivity between wild type and mutant strain [1]: no significant difference was observed

Compound: thiostreptone
- Difference in sensitivity between wild type and mutant strain [1]: no significant difference was observed

Compound: lysozyme: lysozyme derived from egg-white (manufactured by Sigma), cell-wall lytic enzyme
- Minimum growth-inhibiting lysozyme concentration [2]: 12.5 µg/mL
- Cell lysis by lysozyme treatment (PIP band in supernatant, SDS polyacrylamide gel electrophoresis) [3]: Cells were lysed completely
- Change of absorbence (OD600) of culture solution after addition of lysozyme [4]: a sharp decrease in absorbence was observed
- Cell lysis by lysozyme treatment (PIP band in supernatant, SDS polyacrylamide gel electrophoresis) [5]: The same phenomenon as in the case of bacterial stain L-65 is considered
- Minimum growth-inhibiting lysozyme concentration [6]: >400 µg/mL
- Change of absorbence (OD600) of culture solution after addition of lysozyme [7]: a sharp decrease in absorbence was observed
- Change of absorbence (OD600) of culture solution after addition of lysozyme [8]: the same tendency of growth was observed
- Cell lysis by lysozyme treatment (PIP band in supernatant, SDS polyacrylamide gel electrophoresis) ([9]; strain JCM 3201, nondenaturation buffer, no ampicillin): cell lysis rarely takes place
- Cell lysis by lysozyme treatment (PIP band in supernatant, SDS polyacrylamide gel electrophoresis) ([9]; strain JCM 3201 treated with ampicillin 600 μg/ml for 2 hours before cell collection): cell lysis takes place even in nondenaturation conditions

Compound: CC1(C)S[C@@H]2[C@H](NC(=O)[C@H](N)c3ccccc3)C(=O)N2[C@H]1C(=O)O [ampicillin, reference compound]
- Minimum growth-inhibiting ampicillin concentration [2]: 1 µg/mL
- Minimum growth-inhibiting ampicillin concentration [6]: 15 µg/mL
- Minimum growth-inhibiting ampicillin concentration [10]: 1 µg/mL
